System: Muscle Stem Cells
Assay: In vivo muscle regeneration after intramuscular cardiotoxin injury
Settings: mouse, oral gavage 100 mg/kg body weight once a day from one week before cardiotoxin injury; muscles harvested 5 days after injury; versus water control
Description: FIG. 5—In Vivo Muscle Regeneration: Measurement of Early Phase Expansion and Differentiation of Muscle Stem Cells
Early phase of expansion and subsequent phase of myogenic differentiation of Muscle Stem Cells were evaluated.
Data are expressed as number of cells per area of injured muscle.
The size of each newly formed myofiber has been measured based on the expression of the eMHC and laminin that allow to recognize and delineate these nascent myofibers. Results are shown as mean myofiber cross-sectional area (μm^2).
In order to reproduce the physiological process of muscle regeneration that occurs in adult skeletal muscles in response to injury or disease, we performed an intramuscular injection of cardiotoxin into mouse hindlimb muscles. One week prior to the induction of the muscle injury, mice were given by oral gavage compounds of the invention; either cirsimaritin or xanthomicrol at 100 mg/kg body weight and water was used as a control. […] Several myogenic markers were then measured. […]
In particular, this is shown be the early phase of expansion evaluated by counting the number of Pax7+ cells shown in FIG. 5A and the subsequent phase of myogenic differentiation of Muscle Stem Cells measured by counting the number of myogenin+ cells shown in FIG. 5B, respectively. Data were expressed as number of cells per arear of injured muscle. […]

SMILES	in vivo muscle regeneration process (number of Pax7+ cells, number of myogenin+ cells, size of newly formed myofibers)
COc1c(OC)c(O)c2c(=O)cc(-c3ccc(O)cc3)oc2c1OC [Xanthomicrol, 5,4′-Dihydroxy-6,7,8-trimethoxyflavone]	promote the in vivo muscle regeneration process
COc1cc2oc(-c3ccc(O)cc3)cc(=O)c2c(O)c1OC [Cirsimaritin, 5,4′-Dihydroxy-6,7-dimethoxyflavone]	promote the in vivo muscle regeneration process

— US20220054448A1, “NOVEL POLYMETH[…] FOR SKELETAL MUSCLE MODULATION, METHODS AND USES THEREOF” (SOCIETE DES PRODUITS NESTLE S.A., priority 2018, published 2022)
